Our source for the TGI values is PubChem BioAssay (NCI).

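Five concentrations, 48 hours, 96-well plates. TGI: concentration producing complete growth inhibition.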 Some results are limits rather than exact numbers.

Test in all cases: inhibition of tumour cell growth, NCI panel, 48 h
Experiment [1] has as its system CCRF-CEM leukemia.
Experiment [2] relates to SK-OV-3 ovarian.
The subject of experiment [3] is MOLT-4 leukemia.
The test system of experiment [4] is HOP-62 NSCLC.
Experiment [5] deals with SR leukemia.
Experiment [6] relates to TK-10 renal.
For experiment [7], the system named is IGROV1 ovarian.
Experiment [8] concerns M14 melanoma.
The subject of experiment [9] is SW-620 colon.
The subject of experiment [10] is OVCAR-3 ovarian.

With `O=C(Cl)c1cc([N+](=O)[O-])cc([N+](=O)[O-])c1`, the TGI in experiment [1], in [2], in experiment [3], in [4], in [5] and in experiment [6] was above 100 µM each time. For the same compound, the TGI in experiment [7], in experiment [8] and in [9] was above 100 µM in each case.
Turning to `CCN1CCc2sc3[nH]c(=S)n(C)c(=O)c3c2C1`, the TGI in experiment [1], in experiment [10], in [2], in experiment [3], in experiment [4] and in [6] was above 100 µM in each case. Moreover, the TGI in experiment [7], in experiment [8] and in experiment [9] was above 100 µM throughout.
As to `CC(=O)NC(Cc1ccccc1)C(=S)N1CCCC1` (stereo unspecified), the TGI in experiment [1], in [10], in experiment [2], in [3], in experiment [4] and in experiment [6] was above 100 µM in each case. Besides, the TGI in experiment [7], in [8] and in experiment [9] was above 100 µM throughout.
`CC(C)(Oc1ccc(C2C[C@H]2Cl)cc1)C(=O)O` (stereo partly specified): the TGI in experiment [10], in experiment [2], in [3], in experiment [4], in experiment [5] and in [6] was above 100 µM each time. Moreover, the TGI in [7] and in experiment [9] was above 100 µM in each case.
As for `C[N+](C)(C)CC(=O)N/N=C(\C(=O)Nc1ccc(Cl)cc1)C1C(=O)N(c2ccccc2)N=C1N` (stereo unspecified), the TGI in experiment [1], in experiment [10], in [2], in experiment [3], in experiment [4] and in experiment [6] was above 100 µM in each case. Moreover, the TGI in experiment [7], in [8] and in experiment [9] was above 100 µM in each case.
Take `COc1cc(NS(C)(=O)=O)ccc1N1Cc2cnc3ccc4[nH]ccc1c4c23`: the TGI in [1] is above 100 µM; in experiment [10], above 100 µM; in experiment [3] it was 62.5 µM; in experiment [4], above 100 µM; in experiment [6], above 100 µM; in experiment [7] it was above 100 µM. For the same compound, the TGI in experiment [8] and in experiment [9] was above 100 µM in each case.
Consider `COC(=O)[C@H]1ON2O[C@H](OC3CCCC[C@@H]3c3ccccc3)C[C@@H]3CC[C@H]1[C@@]32C` (stereo partly specified), for which the TGI in experiment [1], in experiment [2], in experiment [3], in experiment [4], in experiment [5] and in experiment [6] was above 100 µM each time. The TGI in [7], in experiment [8] and in experiment [9] was above 100 µM each time.
For `N#C/C(=C/NC(=S)Nc1ccc(S(N)(=O)=O)cc1)C(N)=O`, the TGI in experiment [10], in experiment [2], in experiment [3], in [4], in [5] and in experiment [6] was above 100 µM each time. Moreover, the TGI in experiment [7], in experiment [8] and in experiment [9] was above 100 µM in each case.
In the case of `O=S(=O)(N1CCCCN(S(=O)(=O)C(F)(F)F)CCCN(S(=O)(=O)C(F)(F)F)CCCN(S(=O)(=O)C(F)(F)F)CCCCN(S(=O)(=O)C(F)(F)F)CCCN(S(=O)(=O)C(F)(F)F)CCC1)C(F)(F)F`, the TGI in experiment [1], in [10], in [2], in experiment [3], in [4] and in [6] was above 100 µM each time. Further, the TGI in [7], in experiment [8] and in [9] was above 100 µM in each case.
On to `COC(=O)c1ccc2[nH]c3c(c2c1)CC(=O)Nc1ccccc1-3`, for which the TGI was above 100 µM in [10]; above 100 µM in experiment [2]; above 100 µM in experiment [4]; 25 µM in experiment [5]; above 100 µM in experiment [6]; above 100 µM in [7]. The TGI in experiment [8] and in [9] was above 100 µM throughout.
Take `CC(C)(C)OC(=O)NCCNC(=O)OCc1ccccc1`: the TGI in [10], in experiment [2], in experiment [3], in experiment [4], in experiment [5] and in experiment [6] was above 100 µM in each case. For the same compound, the TGI in experiment [7], in experiment [8] and in [9] was above 100 µM each time.
In the case of `CC1=CC(=O)C[C@]2(C)[C@@H](O)CC(C(C)CO)C[C@@H]12` (stereo partly specified), the TGI in experiment [10], in experiment [2], in experiment [3], in [4], in [6] and in experiment [7] was above 100 µM in each case. The TGI in [8] and in experiment [9] was above 100 µM throughout.
For the compound `COc1ccc2[nH]c3c(C)c4ccnc(NCCCN(C)CCCNC(=O)NCCCN(C)CCCNc5nccc6c(C)c7[nH]c8ccc(OC)cc8c7c(C)c56)c4c(C)c3c2c1`, the TGI in experiment [1] was 6.01 µM; in experiment [10], 8.29 µM; in [2], above 18.4 µM; in [3], above 12.4 µM; in experiment [4] it was 2.11 µM; in experiment [6] it was above 50 µM. Also, the TGI in experiment [7] was found to be 2.05 µM; in [8], 1.33 µM; in experiment [9], 1.3 µM.
Turning to `CCN(CC)CC(C(=O)Nc1c(C)cccc1C)/C(C)=N/NC(N)=S` (stereo unspecified), the TGI in experiment [1], in experiment [10], in [2], in experiment [3], in experiment [4] and in experiment [6] was above 100 µM throughout. Besides, the TGI in experiment [7], in experiment [8] and in experiment [9] was above 100 µM each time.
As for `COC(=O)C1(C(=O)OC)CC2=C(S(=O)(=O)c3ccccc3)C[C@@H](C#N)[C@H]2C1`, the TGI in experiment [1] is above 100 µM; in [10], 75.6 µM; in [2], above 100 µM; in experiment [3], above 100 µM; in [4], above 100 µM; in experiment [6], above 100 µM. Besides, the TGI in experiment [7], in experiment [8] and in [9] was above 100 µM each time.
